What was measured:
Sprague-Dawley rats = assay: Complete Freund's adjuvant (CFA)-induced thermal hyperalgesia; type: in vivo, rat; settings: 0.1, 1 or 10 mg/kg s.c., 1 hour post-dose, vs vehicle
Excerpt: Briefly, adult male Sprague-Dawley rats (BioLasco, Taiwan) weighing 180±20 g on receipt were randomly assigned to treatment groups of n=8 per group. […] A subject was placed within a plastic box atop an elevated glass floor and a light beam located under the glass floor was directed at the plantar surface of the right hind paw. The time required for the animal to withdraw the paw from the thermal stimulus was automatically recorded. The intensity of the light was adjusted to evoke an average group baseline latency from 12-14 seconds (pre-CFA) and a cut-off latency of 20 seconds was imposed. The latency for paw withdrawal was obtained for each rat and defined as the heat pain threshold.
Test substance, morphine and vehicle were administered by subcutaneous (s.c.) injection at time 0. The post-treatment level of thermal hyperalgesia was then measured at 60 minutes post-treatment. One-way ANOVA followed by Dunnett's test was applied for comparison between test substance treated groups and vehicle control group. Activity was considered significant at the P<0.05 level.

nicotinic α7 receptor = nicotinic α7 receptor (Homo sapiens, UniProt P36544); assay: Electrophysiology, co-application with ACh (hump currents, Dynaflow chip); type: cell-based
Chain of nicotinic α7 receptor (P36544 23-502): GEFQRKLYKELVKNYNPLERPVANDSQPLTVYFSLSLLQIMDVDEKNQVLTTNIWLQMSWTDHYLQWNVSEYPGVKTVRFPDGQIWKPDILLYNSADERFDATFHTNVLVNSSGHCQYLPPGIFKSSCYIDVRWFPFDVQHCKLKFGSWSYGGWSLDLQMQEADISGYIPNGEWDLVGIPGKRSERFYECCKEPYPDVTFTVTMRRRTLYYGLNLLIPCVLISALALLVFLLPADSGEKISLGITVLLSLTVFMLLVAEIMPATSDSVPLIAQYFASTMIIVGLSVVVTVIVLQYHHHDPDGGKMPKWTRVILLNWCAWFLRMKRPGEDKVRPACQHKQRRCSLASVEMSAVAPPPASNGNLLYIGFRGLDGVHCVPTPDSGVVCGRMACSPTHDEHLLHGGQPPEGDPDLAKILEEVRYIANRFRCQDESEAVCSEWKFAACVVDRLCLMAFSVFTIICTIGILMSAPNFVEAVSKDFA
Procedure: Hump currents are defined as the tail current observed during co-application with endogenous ACh following agonist removal.
The channels were prepared as follows: Control solution (channel #2), application ligand itself (channel #3), application of acetylcholine itself (channel #1), and application of mixture of acetylcholine and ligand (channel #4).
Curve 1, FIG. 7B: The bar above the curve indicates time of ACh application. The curve represents current induced by a one second application of 70 μM ACh. The curve illustrates the result from moving the cell from channel #2 to channel #1 for a 1 second application of ACh and back to channel 2 (washout).
Curve 4, FIG. 7B: Curve 4 represents a repetition of Curve 1 at the end of measurements after application of the ligand and ACh/ligand mixture (recovery).
Curve 2, FIG. 7B: The down/up arrows indicates time of application.

[1] = molecular target: α7 nicotinic ACh receptors (Homo sapiens, UniProt P36544); assay: Electrophysiology, dose-response at α7 nicotinic ACh receptors; type: cell-based
Chain of α7 nicotinic ACh receptors (P36544 23-502): as above

CD-1 mice = assay: Formalin test; type: in vivo, mouse
Procedure: Subjects (adult male CD-1 mice (Charles River, Raleigh, N.C.) weighing approximately 20-25 grams) were removed from their home cage and weighed, then placed in a clear Plexiglas™ observation box for an acclimation period of 20-30 minutes. Mice were then removed from the observation chambers and (2S,3R)—N-2-((3-pyridinyl)methyl)-1-azabicyclo[2.2.2]oct-3-yl)-3,5-difluorobenzamide (as the hydrochloride salt in 0.9% saline) (1, 3 or 10 mg/kg s.c. (calculated with respect to the free base)), morphine (5 mg/kg; s.c.) or 0.9% saline vehicle was administered subcutaneously in a volume of 1 mL/kg. Mice were then returned to the chamber for the predetermined pretreatment time of 30 minutes for (2S,3R)—N-2-((3-pyridinyl)methyl)-1-azabicyclo[2.2.2]oct-3-yl)-3,5-difluorobenzamide and morphine.
The subject's assigned paw was grasped gently and formalin solution was injected into the paw intra-dermally in the middle on the dorsal side. Once injected, the subject was immediately returned to its observation chamber and a timer was started to mark the beginning of Phase I. Each subject was videotaped for the entire 40-minute session. […] The time spent licking during that 1 min interval was recorded, and the presence or absence of paw favoring was noted.
For data analyses, phase I of the test was defined as 0 to 5 minutes after formalin injection, and phase II was defined as 20 to 40 minutes after formalin injection. The time spent licking during the 1 minute intervals during those time frames was recorded and graphed as mean±S.E.M. For comparisons across treatment groups, 1-way analyses of variance (ANOVAs) were performed for each phase of the session with treatment as the […] variable. Post-hoc analyses were performed when appropriate to determine specific group differences.

[2] = Aqueous solubility (salt screen); settings: free base form
[3] = system: ovalbumin-sensitized mice; assay: White blood cell and differential cell counts in BALF; type: in vivo, mouse
Procedure: (§1) Using the method of Hamelmann et al, (2S,3R)—N-2-((3-pyridinyl)methyl)-1-azabicyclo[2.2.2]oct-3-yl)-3,5-difluorobenzamide was evaluated for possible inhibition of airway hyper-responsiveness in mice. Briefly, ovalbumin (OVA)-sensitized animals, 12 animals per group, were challenged by nasal inhalation with aerosolized 5% OVA for 25 min on days 21, 23, and 25. The mice were treated with vehicle or (2S,3R)—N-2-((3-pyridinyl)methyl)-1-azabicyclo[2.2.2]oct-3-yl)-3,5-difluorobenzamide subcutaneously (s.c.) twice daily from day 21 to day 26 or once daily intratracheally (i.t.), preceding ovalbumin aerosol challenge by 30 min on days 21, 23 and 25 as well as methacholine challenge or bronchoalveolar lavage fluids (BALF) harvest on day 26. Dexamethasone, the reference standard, was administered at 3 mg/kg orally (p.o.) once daily 60 min before OVA challenge on day 21, 23 and 25 and 60 min before methacholine provocation or BALF harvest on day 26. Noninvasive measurements of airway responsiveness were performed by using whole body plethysmography, in which increases in enhanced pause (Penh) serve as an index of airway obstruction. Responses to inhaled methacholine were measured and calculated as percentage of respective baseline values. Unpaired Student's t-test was used for comparison between the vehicle control and the sham group; one-way ANOVA and Dunnett's post-hoc analyses were applied for comparison between the vehicle control and treated groups. Statistical significance is considered at P<0.05.

[4] = system: ovalbumin-sensitized mice; assay: Airway hyperresponsiveness, Penh response to methacholine; type: in vivo, mouse; settings: for Methacholine-induced increase in Penh values: FIG. 21
Procedure: as §1

O=C(N[C@@H]1C2CCN(CC2)[C@H]1Cc1cccnc1)c1cc(F)cc(F)c1 [Compound A]
Analgesic effect on CFA-induced thermal hyperalgesia (Sprague-Dawley rats): not associated with any significant analgesic effect
Hump current on application of compound following ACh (nicotinic α7 receptor; 200 nM compound with ACh, Curve 3 FIG. 7B): profound “hump” current
Current produced by compound alone (nicotinic α7 receptor; 200 nM, 5 second application, Curve 2 FIG. 7B): do not produce robust macro currents
Concentration at EMAX of hump current (nicotinic α7 receptor; 100-500 nM range, n=4, FIG. 7C): approximately 500 nM
Effect on ACh-induced current on co-application with ACh (nicotinic α7 receptor; FIG. 6): enhanced ACh-induced current
Functional mode at the α7 NNR [1]: partial agonist
Time spent licking the paw, phase II (CD-1 mice; 10 mg/kg s.c., 20-40 min after formalin, P<0.05): significant in reducing the time spent licking the paw
Time spent licking, phase I (CD-1 mice; 1, 3 or 10 mg/kg s.c., 0-5 min after formalin): no statistically significant dose
Time spent licking, phase I or phase II, re-scored across the entire time period (CD-1 mice; subsequent analysis of the original videotapes): failed to achieve statistical significance
Water solubility [2]: limited
Monocytes in BALF ([3]; 10 mg/kg SC): reduced
Total WBC and eosinophils in BALF ([3]; 0.1 and 1 mg/kg SC): significantly reduced
Lymphocytes in BALF ([3]; 0.1 and 1 mg/kg SC and 10 mg/kg IT): reduced
Eosinophils and white blood cells in BALF (summary) ([3]; multiple administrations, lacks a consistent dose-response relationship): significant reduction in eosinophils and white blood cells in BALF
Methacholine-induced increase in Penh values ([4]; 10 mg/kg IT qd): significant inhibition
Methacholine-induced increase in Penh values ([4]; 0.1, 1, and 10 mg/kg bid s.c.): significant inhibition
Protection against airway hyper-responsiveness (summary) ([4]; 0.1, 1 and 10 mg/kg bid s.c. and 10 mg/kg i.t.): significant protection against airway hyper-responsiveness

Source: patent US9173876B2, “Preparation and therapeutic applications of (2S,3R)-N-2-((3-pyridinyl)methyl)-1-azabicyclo[2.2.2]oct-3-yl)-3,5-difluorobenzamide” (Targacept, Inc., priority 2009, dated 2015)
